Laboratory results: patent US8822211B2, “Device and method for concentrating and detecting pathogenic microbes from blood products and/or their derivatives” (Becton Dickinson Infusion Therapy Systems Inc., priority 2001, dated 2014)
Several values for one entry are separate records, joined by “and”; a condition that tells them apart may be missing. Identical values can stand only once.

Key:
Type in all cases: cell-based
[1] = system: Staphylococcus epidermidis; assay: Platelet aggregation with ADP in the presence of pathogenic microbes, bacteria counting; conditions: 10 μM ADP
Procedure: Platelet aggregation in the presence of ADP comprised the following steps:
a cryobead of Staphylococcus epidermidis was introduced into a tube of 9 ml of tryptone soy broth and incubated at 37° C. for 18-24 hours;
onto 400 μl of platelet concentrate there was added 50 μl of the suspension of Staph. epidermidis and 50 μl of ADP;
(§1) the tubes were agitated manually for 5 minutes at ambient temperature;
500 μl of PBS buffer was added;
filtration was performed on a filter with a porosity of 5 μm;
dilutions were made in series of 1/20 and 1/10 and 1/10;
100 μl of the sample was filtered on a CB04 membrane;
labeling with an esterase was performed; and
The pathogenic microbes were seeded at a high concentration to augment a possible trapping effect. ADP was added to the platelets and the bacteria at a concentration of […].

[2] = system: E. coli; assay: Platelet aggregation with thrombin in the presence of pathogenic microbes, bacteria counting; conditions: for Counting results (E. coli): PC 6, 11 μm filter
Procedure: The experimental studies performed to evaluate the aggregation of pathogenic microbes in the presence of thrombin comprised the following steps:
a cryobead of E. coli was introduced into a tube of 9 ml of tryptone soy broth and incubated at 37° C. for 18-24 hours;
160 μl of platelet concentrate was added to 20 μl of the E. coli suspension and 20 μl of thrombin;
the tube was agitated manually for 5 minutes at ambient temperature;
800 μl of PBS buffer was added;
filtration was performed through a filter of 11 μm porosity;
dilutions in series were performed: 1/20 and 1/10 and 1/10;
filtration was performed on 100 μl of sample on a CB04 membrane;
labeling with esterase was performed; and […]

[3] = system: platelets (platelet concentrate PC 6); assay: Platelet aggregation with thrombin, counting of residual platelets after 11 μm filtration; conditions: 10 IU thrombin per test, PC 6, 5 minutes, 11 μm filter
Procedure: Thrombin is a strong agonist of platelet aggregation. Thrombin solutions (reference T8885 Sigma) were prepared at a concentration of 100 IU/ml when used at the rate of 10 IU/test and in diluted solution form (100 μl of thrombin mother solution with the addition of 900 μl of PBS buffer) when used at the rate of 1 IU/test.
Platelet aggregation by the intermediary of thrombin comprised:
placing 160 μl of platelet concentrate in a tube to which was added 20 μl of PBS buffer and 20 μl of thrombin;
as §1
800 μl of PBS buffer was added to the tubes;
the content of the tubes was filtered on a filter with a porosity of 11 μm;
dilutions were created in series 1/20 to 1/10 from the filtrates;
[…] of each dilution of the filtrate on a CB04 membrane were filtered;
an esterase labeling was performed; and
the platelets possibly retained on the membrane were counted.

Compound | bacteria recovered after the aggregation step ([1]; PC 6) [%] | Concentration bacteria/ml ([1]; PC 6, 5 μm filter) [bacteria/ml] | Results (bacteria count) ([1]; PC 6, 5 μm filter) | Counting results (E. coli) ([2]; 1 IU thrombin) | Counting results (E. coli) ([2]; 10 IU thrombin) | clot formation after addition ([2]; platelet concentrate with E. coli) | platelet count after aggregation and filtration [3]
Nc1ncnc2c1ncn2[C@@H]1O[C@H](COP(=O)(O)OP(=O)(O)O)[C@@H](O)[C@H]1O [ADP] | 74 | 4.7E+07 | 492 and 441 |  |  |  | 
Thrombin |  |  |  | 140 and 167 | 109 and 122 | A clot appeared almost instantly | 44 and 30
